Patent publication US9249145B2, “Heterocyclic derivatives of pyrazol-4-yl-pyrrolo[2,3-d]pyrimidines as janus kinase inhibitors” (Incyte Holdings Corporation, priority 2009, dated 2016)
Where a name gives a salt, the structure may show the parent alone. Read-outs that look alike come from different tables or passages of the source.

Columns and labels:
[1] = molecular target: T1, Jak2 (a.a. 828-1132) (Homo sapiens, UniProt O60674); assay: In vitro JAK kinase assay (HTRF, phosphorylation of biotinylated peptide), JAK2; type: biochemical
T1 construct: Jak2 (a.a. 828-1132); His tag (N); made in house; host or cells: insect cells (baculovirus)
Procedure: (§1) Compounds herein were tested for inhibitory activity of JAK targets according to the following in vitro assay described in Park et al., Analytical Biochemistry 1999, 269, 94-104. The catalytic domains of human JAK1 (a.a. 837-1142), Jak2 (a.a. 828-1132) and Jak3 (a.a. 781-1124) with an N-terminal His tag were expressed using baculovirus in insect cells and purified. The catalytic activity of JAK1, JAK2 or JAK3 was assayed by measuring the phosphorylation of a biotinylated peptide. The phosphorylated peptide was detected by homogenous time resolved fluorescence (HTRF). IC50s of compounds were measured for each kinase in the 40 microL reactions that contain the enzyme, ATP and 500 nM peptide in 50 mM Tris (pH 7.8) buffer with 100 mM NaCl, 5 mM DTT, and 0.1 mg/mL (0.01%) BSA. The ATP concentration in the reactions was 90 μM for Jak1, 30 μM for Jak2 and 3 μM for Jak3 for Km conditions. For the 1 mM IC50 measurements, ATP concentration in the reactions was 1 mM. Reactions were carried out at room temperature for 1 hr and then stopped with 20 μL 45 mM EDTA, 300 nM SA-APC, 6 nM Eu-Py20 in assay buffer (Perkin Elmer, Boston, Mass.). Binding to the Europium labeled antibody took place for 40 minutes and HTRF signal was measured on a Fusion plate reader (Perkin Elmer, Boston, Mass.). See Tables 1, 2, 3, and 4 for data related to compounds of the invention.

[2] = molecular target: T2, human JAK1 (a.a. 837-1142) (Homo sapiens, UniProt P23458); assay: In vitro JAK kinase assay (HTRF, phosphorylation of biotinylated peptide), JAK1; type: biochemical
T2 construct: The catalytic domains of human JAK1 (a.a. 837-1142); His tag (N); made in house; host or cells: insect cells (baculovirus)
Procedure: as §1

[3] = 1 mM ATP, Examples 12-91, read-out: JAK2 IC50 (nM) @ 1 mM ATP
[4] = 1 mM ATP, Examples 12-91, read-out: JAK1 IC50 (nM) @ 1 mM ATP
[5] = 1 mM ATP, Examples 92-162, read-out: JAK2 IC50 (nM) @ 1 mM ATP
[6] = 1 mM ATP, Examples 92-162, read-out: JAK1 IC50 (nM) @ 1 mM ATP
[7] = 1 mM ATP, Examples 1-11, read-out: IC50 (nM) @ 1 mM ATP JAK2
[8] = Km ATP (30 μM for Jak2), Examples 1-11, read-out: IC50 (nM) @ Km ATP JAK2
[9] = Km ATP (90 μM for Jak1), Examples 1-11, read-out: IC50 (nM) @ Km ATP JAK1

T1 sequence (O60674 828-1132): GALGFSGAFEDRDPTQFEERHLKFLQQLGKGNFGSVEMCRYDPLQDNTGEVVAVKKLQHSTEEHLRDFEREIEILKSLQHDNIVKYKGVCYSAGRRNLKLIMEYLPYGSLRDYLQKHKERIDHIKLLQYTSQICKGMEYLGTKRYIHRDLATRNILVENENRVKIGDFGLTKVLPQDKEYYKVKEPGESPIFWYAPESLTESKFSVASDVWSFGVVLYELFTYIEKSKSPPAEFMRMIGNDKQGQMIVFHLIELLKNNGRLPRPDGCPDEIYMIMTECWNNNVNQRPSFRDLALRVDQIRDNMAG
T2 sequence (P23458 849-1154): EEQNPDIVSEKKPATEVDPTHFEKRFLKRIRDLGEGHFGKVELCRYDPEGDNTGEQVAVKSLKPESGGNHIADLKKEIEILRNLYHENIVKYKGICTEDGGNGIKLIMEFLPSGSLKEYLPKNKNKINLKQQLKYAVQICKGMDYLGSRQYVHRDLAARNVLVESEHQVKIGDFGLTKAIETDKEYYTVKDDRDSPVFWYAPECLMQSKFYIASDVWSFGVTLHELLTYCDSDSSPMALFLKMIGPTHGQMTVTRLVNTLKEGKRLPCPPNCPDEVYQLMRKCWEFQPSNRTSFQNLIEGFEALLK

| Structure (SMILES) | IC50 [1, 3] [nM] | IC50 [2, 4] [nM] | IC50 [1, 5] [nM] | IC50 [2, 6] [nM] | other results |
| --- | --- | --- | --- | --- | --- |
| N#CCC(CN1CCN(C(=O)c2ccc(Cl)cn2)CC1)n1cc(-c2ncnc3[nH]ccc23)cn1 (stereo not shown) [Example 38, 3-(4-(7H-pyrrolo[2,3-d]pyrimidin-4-yl)-1H-pyrazol-1-yl)-4-(4-(5-chloropicolinoyl)piperazin-1-yl)butanenitrile] | 10 to 50 | < 10 | – | – | – |
| N#CCC(CN1CCN(C(=O)c2ccc(F)cc2C(F)(F)F)CC1)n1cc(-c2ncnc3[nH]ccc23)cn1 (stereo not shown) [Example 59] | > 100 | 10 to 50 | – | – | – |
| N#CCC(CN1CCN(S(=O)(=O)c2ccccc2C#N)CC1)n1cc(-c2ncnc3[nH]ccc23)cn1 (stereo not shown) [Example 60, 2-(4-(2-(4-(7H-pyrrolo[2,3-d]pyrimidin-4-yl)-1H-pyrazol-1-yl)-3-cyanopropyl)piperazin-1-ylsulfonyl)benzonitrile] | < 10 | < 10 | – | – | – |
| N#CCC(CN1CCN(C(=O)c2ccc(F)cc2F)CC1)n1ccc(-c2ncnc3[nH]ccc23)c1 (stereo not shown) [Example 90, 3-(3-(7H-pyrrolo[2,3-d]pyrimidin-4-yl)-1H-pyrrol-1-yl)-4-(4-(2,4-difluorobenzoyl)piperazin-1-yl)butanenitrile] | < 10 | < 10 | – | – | – |
| N#CCC(CN1CCN(S(=O)(=O)c2cc(F)cc(F)c2)CC1)n1cc(-c2ncnc3[nH]ccc23)cn1 (stereo not shown) [Example 61, 3-(4-(7H-pyrrolo[2,3-d]pyrimidin-4-yl)-1H-pyrazol-1-yl)-4-(4-(3,5-difluorophenylsulfonyl)piperazin-1-yl)butanenitrile trifluoroacetate salt] | < 10 | < 10 | – | – | – |
| N#CCC(CN1CCCN(C(=O)c2ccc(Cl)cc2F)CC1)n1cc(-c2ncnc3[nH]ccc23)cn1 (stereo not shown) [Example 100, 4-[4-(4-chloro-2-fluorobenzoyl)-1,4-diazepan-1-yl]-3-[4-(7H-pyrrolo[2,3-d]pyrimidin-4-yl)-1H-pyrazol-1-yl]butanenitrile] | – | – | 20 to 50 | < 20 | – |
| N#CCC(CN1CCCN(C(=O)c2ccccc2F)CC1)n1cc(-c2ncnc3[nH]ccc23)cn1 (stereo not shown) [Example 101, 4-[4-(2-fluorobenzoyl)-1,4-diazepan-1-yl]-3-[4-(7H-pyrrolo[2,3-d]pyrimidin-4-yl)-1H-pyrazol-1-yl]butanenitrile] | – | – | > 100 | 20 to 50 | – |
| N#CCC(CC1CCN(C(=O)c2ccc(F)cc2)CC1)n1cc(-c2ncnc3[nH]ccc23)cn1 (stereo not shown) [Example 8, 4-[1-(4-fluorobenzoyl)piperidin-4-yl]-3-[4-(7H-pyrrolo[2,3-d]pyrimidin-4-yl)-1H-pyrazol-1-yl]butanenitrile] | – | – | – | – | IC50 [1, 7]: < 10 nM; IC50 [1, 8]: < 10 nM; IC50 [2, 9]: < 10 nM |
| CCC(CN1CCN(S(=O)(=O)c2cc(F)cc(F)c2)CC1)n1cc(-c2ncnc3[nH]ccc23)cn1 (stereo not shown) [Example 142, 4-(1-(1-(4-(3,5-difluorophenylsulfonyl)piperazin-1-yl)butan-2-yl)-1H-pyrazol-4-yl)-7H-pyrrolo[2,3-d]pyrimidine] | – | – | 50 to 100 | < 20 | – |
| N#CCC(CN1CCN(C(=O)c2ccc(C#N)cc2F)CC1)n1ccc(-c2ncnc3[nH]ccc23)c1 (single isomer, unassigned) [Example 13, 4-[(4-{3-cyano-2-[3-(7H-pyrrolo[2,3-d]pyrimidin-4-yl)-1H-pyrrol-1-yl]propyl}piperazin-1-yl)carbonyl]-3-fluorobenzonitrile trifluoroacetate Salt] | 50 to 100 | < 10 | – | – | – |
| CCC(CN1CCN(S(=O)(=O)c2cn(C)nc2C(F)(F)F)CC1)n1cc(-c2ncnc3[nH]ccc23)cn1 (stereo not shown) [Example 133, 4-(1-(1-(4-(1-methyl-3-(trifluoromethyl)-1H-pyrazol-4-ylsulfonyl)piperazin-1-yl)butan-2-yl)-1H-pyrazol-4-yl)-7H-pyrrolo[2,3-d]pyrimidine] | – | – | > 100 | 20 to 50 | – |
| COCC1CN(C(=O)c2ccc(C#N)cc2F)CCN1CC(CC#N)n1cc(-c2ncnc3[nH]ccc23)cn1 (single isomer, unassigned) [Example 157—peak 1, 4-{[4-{3-cyano-2-[4-(7H-pyrrolo[2,3-d]pyrimidin-4-yl)-1H-pyrazol-1-yl]propyl}-3-(methoxymethyl)piperazin-1-yl]carbonyl}-3-fluorobenzonitrile] | – | – | > 100 | > 100 | – |
| N#CCC(CN1CCN(C(=O)c2cc(OC(F)(F)F)ccc2F)CC1)n1cc(-c2ncnc3[nH]ccc23)cn1 (stereo not shown) [Example 41, 3-(4-(7H-pyrrolo[2,3-d]pyrimidin-4-yl)-1H-pyrazol-1-yl)-4-(4-(2-fluoro-5-(trifluoromethoxy)benzoyl)piperazin-1-yl)butanenitrile] | 10 to 50 | < 10 | – | – | – |
| COc1ccc(C(=O)N2CCN(CC(CC#N)n3cc(-c4ncnc5[nH]ccc45)cn3)CC2)c(F)c1F (stereo not shown) [Example 34, 3-(4-(7H-pyrrolo[2,3-d]pyrimidin-4-yl)-1H-pyrazol-1-yl)-4-(4-(2,3-difluoro-4-methoxybenzoyl)piperazin-1-yl)butanenitrile] | 10 to 50 | < 10 | – | – | – |
| CCC(CN1CCN(C(=O)c2cccs2)CC1)n1cc(-c2ncnc3[nH]ccc23)cn1 (stereo not shown) [Example 126, (4-(2-(4-(7H-pyrrolo[2,3-d]pyrimidin-4-yl)-1H-pyrazol-1-yl)butyl)piperazin-1-yl)(thiophen-2-yl)methanone] | – | – | > 100 | 20 to 50 | – |
| Cc1ccc(S(=O)(=O)N2CCN(CC(CC#N)n3cc(-c4ncnc5[nH]ccc45)cn3)CC2)nc1 (stereo not shown) [Example 63, 3-(4-(7H-pyrrolo[2,3-d]pyrimidin-4-yl)-1H-pyrazol-1-yl)-4-(4-(5-methylpyridin-2-ylsulfonyl)piperazin-1-yl)butanenitrile] | < 10 | < 10 | – | – | – |
| N#CCC(CN1CCN(C(=O)c2ncc(Cl)cc2F)CC1)n1cc(-c2ncnc3[nH]ccc23)cn1 (stereo not shown) [Example 16, 4-{4-[(5-chloro-3-fluoropyridin-2-yl)carbonyl]piperazin-1-yl}-3-[4-(7H-pyrrolo[2,3-d]pyrimidin-4-yl)-1H-pyrazol-1-yl]butanenitrile] | < 10 | < 10 | – | – | – |
| N#CCC(C1CCN(c2cc(Oc3ccccc3)ncn2)CC1)n1cc(-c2ncnc3[nH]ccc23)cn1 (stereo not shown) [Example 151, 3-(4-(7H-pyrrolo[2,3-d]pyrimidin-4-yl)-1H-pyrazol-1-yl)-3-(1-(6-phenoxypyrimidin-4-yl)piperidin-4-yl)propanenitrile] | – | – | 50 to 100 | < 20 | – |
| N#CCC(CN1CCN(C(=O)c2ccc(C(F)(F)F)cc2F)CC1)n1cc(-c2ncnc3[nH]ccc23)cn1 (stereo not shown) [Example 45, 3-(4-(7H-pyrrolo[2,3-d]pyrimidin-4-yl)-1H-pyrazol-1-yl)-4-(4-(2-fluoro-4-(trifluoromethyl)benzoyl)piperazin-1-yl)butanenitrile trifluoroacetate salt] | 10 to 50 | < 10 | – | – | – |
| N#CCC(CN1CCN(C(=O)Nc2cccc(C(F)(F)F)c2F)CC1)n1cc(-c2ncnc3[nH]ccc23)cn1 (stereo not shown) [Example 73, 4-(2-(4-(7H-pyrrolo[2,3-d]pyrimidin-4-yl)-1H-pyrazol-1-yl)-3-cyanopropyl)-N-(2-fluoro-3-(trifluoromethyl)phenyl)piperazine-1-carboxamide] | > 100 | 10 to 50 | – | – | – |
| CC(CN1CCN(C(=O)c2ccc(F)cc2F)CC1)n1cc(-c2ncnc3[nH]ccc23)cn1 (stereo not shown) [Example 95, 4-(1-{2-[4-(2,4-difluorobenzoyl)piperazin-1-yl]-1-methylethyl}-1H-pyrazol-4-yl)-7H-pyrrolo[2,3-d]pyrimidine bis(trifluoroacetate)] | – | – | > 100 | 20 to 50 | – |
| Cn1ccc(S(=O)(=O)N2CCN(CC(CC#N)n3cc(-c4ncnc5[nH]ccc45)cn3)CC2)n1 (stereo not shown) [Example 4, 4-{4-[(1-methyl-1H-pyrazol-3-yl)sulfonyl]piperazin-1-yl}-3-[4-(7H-pyrrolo[2,3-d]pyrimidin-4-yl)-1H-pyrazol-1-yl]butanenitrile] | – | – | – | – | IC50 [1, 7]: < 10 nM; IC50 [1, 8]: < 10 nM; IC50 ([2]; 1 mM ATP, Examples 1-11, read-out: IC50 (nM) @ 1 mM ATP JAK1): < 10 nM; IC50 [2, 9]: < 10 nM |
| N#CCC(CN1CCN(C(=O)c2cc(Cl)cc(OC(F)(F)F)c2)CC1)n1cc(-c2ncnc3[nH]ccc23)cn1 (stereo not shown) [Example 53, 3-(4-(7H-pyrrolo[2,3-d]pyrimidin-4-yl)-1H-pyrazol-1-yl)-4-(4-(3-chloro-5-(trifluoromethoxy)benzoyl)piperazin-1-yl)butanenitrile] | 50 to 100 | 10 to 50 | – | – | – |
